Results: patent US5741781A, “Mercaptoalkanoyldipeptide compounds” (Adir et Compagnie, priority 1995, dated 1998)

Experiments:
[1] = target: T1, renal neutral endopeptidase (NEP) (Mus musculus, UniProt Q61391); assay: Inhibition in vivo of renal NEP, competition with [3H]HACBOGIy; conditions: mice, p.o. single dose 2.6 × 10^-6 mol/kg (1.5 mg/kg)
T1 construct: from tissue; host or cells: mouse kidney (in vivo, homogenised after sacrifice)
T1 sequence (Q61391 1-750): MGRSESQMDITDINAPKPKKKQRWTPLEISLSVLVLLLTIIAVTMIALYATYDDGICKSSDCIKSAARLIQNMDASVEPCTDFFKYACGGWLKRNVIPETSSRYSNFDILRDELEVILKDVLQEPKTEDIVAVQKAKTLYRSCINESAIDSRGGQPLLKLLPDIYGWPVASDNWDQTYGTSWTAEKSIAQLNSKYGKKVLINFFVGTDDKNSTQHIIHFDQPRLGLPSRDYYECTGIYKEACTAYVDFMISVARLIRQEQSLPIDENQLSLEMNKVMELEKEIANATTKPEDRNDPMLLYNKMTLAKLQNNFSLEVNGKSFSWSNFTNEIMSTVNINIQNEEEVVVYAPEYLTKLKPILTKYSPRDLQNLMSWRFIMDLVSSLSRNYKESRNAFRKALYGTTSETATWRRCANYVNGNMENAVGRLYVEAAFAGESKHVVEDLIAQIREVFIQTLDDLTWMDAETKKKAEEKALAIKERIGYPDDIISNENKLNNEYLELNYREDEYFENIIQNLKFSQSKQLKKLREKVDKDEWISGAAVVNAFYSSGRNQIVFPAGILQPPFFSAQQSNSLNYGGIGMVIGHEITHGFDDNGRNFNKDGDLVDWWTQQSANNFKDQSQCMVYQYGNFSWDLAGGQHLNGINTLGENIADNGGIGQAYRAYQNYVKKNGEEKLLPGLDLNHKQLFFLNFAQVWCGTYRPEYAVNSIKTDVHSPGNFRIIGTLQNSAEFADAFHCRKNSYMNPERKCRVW
Protocol: (§1) The compounds are administrated per os to mice in a single dose. Inhibition of both enzymes is measured during a time period from 1 hour to 16 hours by competitive experiments with specific radiolabelled markers for each enzyme. After i.v. administration of a radiolabelled ACE inhibitor ([^3 H]trandolaprilate) or a radiolabelled NEP inhibitor ([^3 H]HACBOGIy), the animal is sacrificed and the lungs or the kidneys are removed. The organs are homogenized and the radioactivity associated to these homogenates is measured by liquid scintillation as described in the protocol by M. C. Fourni6-Zaluski et al. (J. Med. Chem., 37, (1994), 1070-1083).

[2] = target: T2, pulmonary peptidyldipeptidase A (ACE) (Mus musculus, UniProt P09470); assay: Inhibition in vivo of pulmonary ACE, competition with [3H]trandolaprilate; conditions: mice, p.o. single dose 2.6 × 10^-6 mol/kg (1.5 mg/kg)
T2 construct: from tissue; host or cells: mouse lung (in vivo, homogenised after sacrifice)
T2 sequence (P09470 35-1312): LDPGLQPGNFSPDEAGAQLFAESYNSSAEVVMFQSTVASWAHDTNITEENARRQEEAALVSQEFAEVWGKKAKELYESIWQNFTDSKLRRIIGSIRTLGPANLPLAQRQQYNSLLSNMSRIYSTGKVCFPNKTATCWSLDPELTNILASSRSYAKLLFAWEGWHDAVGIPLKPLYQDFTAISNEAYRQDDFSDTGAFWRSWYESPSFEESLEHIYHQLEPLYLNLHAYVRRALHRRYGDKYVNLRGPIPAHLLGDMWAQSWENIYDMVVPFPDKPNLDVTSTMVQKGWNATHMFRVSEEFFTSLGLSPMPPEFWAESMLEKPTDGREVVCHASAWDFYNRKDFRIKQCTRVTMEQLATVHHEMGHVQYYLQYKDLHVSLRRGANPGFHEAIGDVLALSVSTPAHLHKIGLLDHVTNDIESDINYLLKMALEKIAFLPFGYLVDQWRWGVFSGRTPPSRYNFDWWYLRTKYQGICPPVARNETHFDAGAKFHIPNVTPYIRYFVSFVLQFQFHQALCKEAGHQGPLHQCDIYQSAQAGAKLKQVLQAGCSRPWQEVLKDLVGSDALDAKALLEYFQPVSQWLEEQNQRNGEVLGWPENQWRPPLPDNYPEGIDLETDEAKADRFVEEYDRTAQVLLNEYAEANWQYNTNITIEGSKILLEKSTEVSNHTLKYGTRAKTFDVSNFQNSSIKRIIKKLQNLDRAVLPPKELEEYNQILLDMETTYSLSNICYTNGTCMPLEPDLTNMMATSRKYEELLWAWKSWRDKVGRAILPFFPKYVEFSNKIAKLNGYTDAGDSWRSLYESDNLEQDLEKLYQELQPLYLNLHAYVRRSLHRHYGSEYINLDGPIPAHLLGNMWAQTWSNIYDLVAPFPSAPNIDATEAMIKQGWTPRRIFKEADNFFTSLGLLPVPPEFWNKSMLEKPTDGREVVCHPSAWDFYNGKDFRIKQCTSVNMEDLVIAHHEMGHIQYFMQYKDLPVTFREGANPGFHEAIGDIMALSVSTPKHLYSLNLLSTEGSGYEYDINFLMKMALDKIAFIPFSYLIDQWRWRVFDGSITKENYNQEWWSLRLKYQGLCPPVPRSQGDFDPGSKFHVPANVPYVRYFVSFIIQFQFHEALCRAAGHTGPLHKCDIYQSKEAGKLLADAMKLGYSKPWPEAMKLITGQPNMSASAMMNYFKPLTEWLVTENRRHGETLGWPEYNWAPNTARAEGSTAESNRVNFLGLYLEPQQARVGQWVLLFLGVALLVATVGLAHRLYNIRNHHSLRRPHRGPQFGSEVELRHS
Protocol: as §1

[3] = system: spontaneously hypertensive male rat (SHR); assay: Anti-hypertensive effect in the spontaneously hypertensive rat (SHR); assay type: in vivo
Protocol: The anti-hypertensive effect of the compounds of the invention is determined in vivo in the rat affected by a hypertension induced by the administration of DOCA salt (deoxycorticosterone acetate) and in the spontaneously hypertensive male rat (SHR), in accordance with the protocol described by Trapani et al. (J. Cardiovasc. Pharmacol., 14, (1989), 419-424). In that test the compounds of the invention are shown to be powerful anti-hypertensives and to be non-toxic.

[4] = target: neutral endopeptidase (NEP) (Homo sapiens, UniProt P08473); assay: Inhibitory effect in vitro on neutral endopeptidase, [3H]-D-Ala2-Leu-encephalin as substrate; assay type: biochemical; conditions: comment on Table I
[5] = target: neutral endopeptidase called "encephalinase" (Homo sapiens, UniProt P08473); conditions: Nature, 228, (1980), 286-288; cited from earlier work
[6] = cited from earlier work

neutral endopeptidase called "encephalinase", sequence (P08473 whole entry): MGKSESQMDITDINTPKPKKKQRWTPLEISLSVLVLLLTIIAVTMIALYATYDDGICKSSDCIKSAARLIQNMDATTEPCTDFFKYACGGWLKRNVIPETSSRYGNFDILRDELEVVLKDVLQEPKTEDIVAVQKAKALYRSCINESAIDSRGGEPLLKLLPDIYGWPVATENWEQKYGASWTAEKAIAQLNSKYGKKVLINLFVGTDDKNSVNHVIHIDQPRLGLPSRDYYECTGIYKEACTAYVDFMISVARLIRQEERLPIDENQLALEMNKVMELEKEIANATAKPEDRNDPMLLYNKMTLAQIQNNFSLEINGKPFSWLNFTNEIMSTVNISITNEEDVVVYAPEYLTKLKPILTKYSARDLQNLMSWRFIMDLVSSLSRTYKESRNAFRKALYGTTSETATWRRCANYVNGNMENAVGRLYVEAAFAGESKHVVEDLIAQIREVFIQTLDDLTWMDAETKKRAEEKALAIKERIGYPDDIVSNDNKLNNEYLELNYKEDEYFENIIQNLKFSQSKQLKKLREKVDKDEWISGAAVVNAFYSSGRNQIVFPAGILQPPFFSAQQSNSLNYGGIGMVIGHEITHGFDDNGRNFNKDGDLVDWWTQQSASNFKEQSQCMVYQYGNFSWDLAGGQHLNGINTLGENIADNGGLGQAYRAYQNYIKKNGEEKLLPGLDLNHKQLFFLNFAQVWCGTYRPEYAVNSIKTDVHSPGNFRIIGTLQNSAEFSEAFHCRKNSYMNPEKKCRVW
neutral endopeptidase (NEP), sequence (P08473 whole entry, species assumed): as the sequence (P08473 whole entry) above

**Q.** Which “% inhibition renal NEP” value ([1]; 1 h after administration) does the source give for `O=C(NCC(=O)N1[C@@H](c2cccc(O)c2)CC[C@H]1C(=O)O)[C@@H](S)Cc1ccc(O)cc1` [Example 47, N-[N-(5R)-[(2S)-2-mercapto-3-(para-hydroxyphenyl)propanoyl]glycyl]5-(meta-hydroxyphenyl)-L-proline] here?
**A.** 75 ± 3%

**Q.** What about the “% inhibition renal NEP” value ([1]; 2 h after administration) of the same compound?
**A.** 70 ± 5%

**Q.** And the “% inhibition renal NEP” value ([1]; 4 h after administration)?
**A.** 74 ± 4%

**Q.** What about the “% inhibition renal NEP” value ([1]; 8 h after administration) of the same compound?
**A.** 60 ± 10%

**Q.** What about the “% inhibition renal NEP” value ([1]; 16 h after administration) of the same compound?
**A.** 48 ± 4%

**Q.** What about the “% inhibition pulmonary ACE” value ([2]; 1 h after administration) of the same compound?
**A.** 90 ± 1%

**Q.** What about the “% inhibition pulmonary ACE” value ([2]; 2 h after administration) of the same compound?
**A.** 86 ± 3%

**Q.** What about the “% inhibition pulmonary ACE” value ([2]; 4 h after administration) of the same compound?
**A.** 87 ± 3%

**Q.** And the “% inhibition pulmonary ACE” value ([2]; 8 h after administration)?
**A.** 73 ± 3%

**Q.** And the “% inhibition pulmonary ACE” value ([2]; 16 h after administration)?
**A.** 20 ± 8%

**Q.** What about the “Systolic blood pressure (mm Hg) Treated animals” value (“Systolic blood pressure” for short) ([3]; p.o. 25 mg/kg/day Day 1 to Day 6, n = 10, Day 0) of the same compound?
**A.** 210 ± 5 mm Hg

**Q.** And the “Systolic blood pressure” value ([3]; p.o. 25 mg/kg/day Day 1 to Day 6, n = 10, Day 1)?
**A.** 212 ± 3 mm Hg

**Q.** And the “Systolic blood pressure” value ([3]; p.o. 25 mg/kg/day Day 1 to Day 6, n = 10, Day 2)?
**A.** 211 ± 1 mm Hg

**Q.** And the “Systolic blood pressure” value ([3]; p.o. 25 mg/kg/day Day 1 to Day 6, n = 10, Day 3)?
**A.** 210 ± 2 mm Hg

**Q.** What about the “Systolic blood pressure” value ([3]; p.o. 25 mg/kg/day Day 1 to Day 6, n = 10, Day 4) of the same compound?
**A.** 205 ± 2 mm Hg

**Q.** What about the “Systolic blood pressure” value ([3]; p.o. 25 mg/kg/day Day 1 to Day 6, n = 10, Day 5) of the same compound?
**A.** 205 ± 1 mm Hg

**Q.** And the “Systolic blood pressure” value ([3]; p.o. 25 mg/kg/day Day 1 to Day 6, n = 10, Day 6)?
**A.** 213 ± 2 mm Hg

**Q.** What about the “Systolic blood pressure” value ([3]; p.o. 25 mg/kg/day Day 1 to Day 6, n = 10, Day 7) of the same compound?
**A.** 209 ± 4 mm Hg

**Q.** And the “Systolic blood pressure” value ([3]; p.o. 25 mg/kg/day Day 1 to Day 6, n = 10, Day 8)?
**A.** 212 ± 2 mm Hg

**Q.** What about the “Systolic blood pressure” value ([3]; p.o. 25 mg/kg/day Day 1 to Day 6, n = 10, Day 9) of the same compound?
**A.** 208 ± 2 mm Hg

**Q.** What about the “Systolic blood pressure” value ([3]; p.o. 25 mg/kg/day Day 1 to Day 6, n = 10, Day 10) of the same compound?
**A.** 214 ± 1 mm Hg

**Q.** With `O=C(O)CNC(=O)C(CS)Cc1ccccc1` (stereo not drawn) [thiorphan, N-(2-mercaptomethyl-3-phenyl-1-oxopropyl)glycine] as the compound, how does the “activity on NEP versus ACE in words” value [4] read?
**A.** exhibits an activity on neutral endopeptidase (NEP) only

**Q.** What about the “inhibitory property, concentration” value [5] of the same compound?
**A.** nanomolar concentration

**Q.** And the “effect in clinical trials” value [6]?
**A.** causes natriuresis and diuresis without any significant hypotensive effect and without decreasing cardiac overload
